The results in this text go back to ChEMBL document CHEMBL1146791, “Synthesis of nitrated indenoisoquinolines as topoisomerase I inhibitors” (2004).

As a reminder, the GI50 is the concentration giving 50% growth inhibition.

One experiment concerns MDA-MB-435. Briefly: Cytotoxicity against MDA-MB-435 human breast cancer cell line was determined. Type of experiment: functional.
The test system of another experiment is DU-145. Briefly: Cytotoxicity against DU-145 human prostate cancer cell line was determined. Format: functional.
The test system of the next experiment is UACC-62. Briefly: Cytotoxicity against UACC-62 human melanoma cancer cell line was determined. Format: functional.
In a further experiment the test system is OVCAR-3. Briefly: Cytotoxicity against OVCAR-3 human ovarian cancer cell line was determined. Type of experiment: functional.
For a further experiment, the system named is HCT-116. Put plainly: Cytotoxicity against HCT116 human colon cancer cell line was determined. Format: functional.
Another experiment relates to HOP-62. Briefly: Cytotoxicity against HOP-62 human lung cancer cell line was determined. Type of experiment: functional.
For a further experiment, the system named is SN12C. Briefly: Cytotoxicity against SN12C human renal cancer cell line was determined. Format: functional.
For another experiment, the system named is SF-268. Briefly: Cytotoxicity against SF-268 human CNS cancer cell line was determined. Type of experiment: functional.
The target in experiment [1] is T1, DNA topoisomerase 1 (Homo sapiens) (UniProt P11387).
T1 sequence (whole entry): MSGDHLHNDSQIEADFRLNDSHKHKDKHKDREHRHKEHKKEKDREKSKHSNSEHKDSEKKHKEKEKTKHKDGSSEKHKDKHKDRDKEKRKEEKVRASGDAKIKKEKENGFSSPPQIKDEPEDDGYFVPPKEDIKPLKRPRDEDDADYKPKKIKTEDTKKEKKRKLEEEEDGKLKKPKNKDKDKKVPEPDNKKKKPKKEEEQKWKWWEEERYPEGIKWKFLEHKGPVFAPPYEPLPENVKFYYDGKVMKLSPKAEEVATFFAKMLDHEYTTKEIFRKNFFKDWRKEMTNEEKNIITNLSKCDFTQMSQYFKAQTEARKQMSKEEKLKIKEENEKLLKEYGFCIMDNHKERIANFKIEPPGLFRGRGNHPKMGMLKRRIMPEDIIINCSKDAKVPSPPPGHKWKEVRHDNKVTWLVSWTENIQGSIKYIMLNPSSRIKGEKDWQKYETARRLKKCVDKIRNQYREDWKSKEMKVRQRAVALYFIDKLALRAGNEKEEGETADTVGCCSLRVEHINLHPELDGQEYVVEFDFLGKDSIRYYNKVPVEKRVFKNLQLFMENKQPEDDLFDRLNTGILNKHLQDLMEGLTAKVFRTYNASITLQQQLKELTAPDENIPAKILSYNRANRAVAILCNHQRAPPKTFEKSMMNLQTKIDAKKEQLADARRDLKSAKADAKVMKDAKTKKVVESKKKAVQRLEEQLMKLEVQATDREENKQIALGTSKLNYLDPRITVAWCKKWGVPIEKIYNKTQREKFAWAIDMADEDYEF
Briefly: Inhibitory activity against DNA topoisomerase I cleavage was determined at a concentration ranging up to 10uM; '+' indicates weak activity.

Experiment [2] has as its target T1, DNA topoisomerase 1 (Homo sapiens). Put plainly: Inhibitory activity against DNA topoisomerase I cleavage was determined at a concentration ranging up to 10 uM; NT- Not tested.
Experiment [3] has the same target. Put plainly: Inhibitory activity against DNA topoisomerase I cleavage was determined at a concentration ranging uM camptothecin.
Experiment [4] shares this target. Put plainly: Inhibitory activity against DNA topoisomerase I cleavage was determined at a concentration ranging up to 10 uM; ''+/-'' No description in the article.
The target is the same in experiment [5]. Briefly: Inhibitory activity against DNA topoisomerase I cleavage was determined at a concentration ranging up to 10 uM.
For experiment [6] the target is unchanged. Briefly: Inhibitory activity against DNA topoisomerase I cleavage was determined at a concentration ranging up to 10 uM; ''+++'' indicates greater activity than the parent compound 25. Further details: scale not given here.

As for `[N-]=[N+]=NCCCn1c2c(c3ccccc3c1=O)C(=O)c1ccccc1-2`, the GI50 in the experiment on MDA-MB-435 was 7760 nM; in the experiment on DU-145 it was 44700 nM; with UACC-62, 19500 nM; in the experiment with OVCAR-3, 7940 nM; in the experiment on HCT-116 it was 4900 nM; in the experiment with HOP-62, 7590 nM. This compound returned a GI50 with SN12C of 25100 nM.

Consider `O=C1c2cc3c(cc2[C@@H]2[C@H]1c1ccc([N+](=O)[O-])cc1C(=O)N2CCCCl)OCO3`, for which the GI50 in the experiment on MDA-MB-435, in the experiment with DU-145, in the experiment on SF-268, in the experiment on UACC-62, in the experiment with OVCAR-3 and with HCT-116 was less than 10 nM each time. The GI50 in the experiment on HOP-62 and with SN12C was less than 10 nM throughout. For the same compound, the Activity entry in [1] is “weak activity”.

For `[N-]=[N+]=NCCCn1c2c(c3ccc([N+](=O)[O-])cc3c1=O)C(=O)c1ccccc1-2`, the GI50 was greater than 100000 nM in the experiment on MDA-MB-435; greater than 100000 nM in the experiment on DU-145; 79400 nM in the experiment with SF-268; 44700 nM in the experiment with UACC-62; 8130 nM with HCT-116; greater than 100000 nM with HOP-62. For the same compound, in the experiment with SN12C, the GI50 was found to be 72400 nM.

On to `O=C1c2ccccc2-c2c1c1ccc([N+](=O)[O-])cc1c(=O)n2CCCBr`, for which the GI50 in the experiment on MDA-MB-435 is greater than 100000 nM; with DU-145 it was greater than 100000 nM; with SF-268, greater than 100000 nM; in the experiment with UACC-62, greater than 100000 nM; with OVCAR-3, greater than 100000 nM; in the experiment on HCT-116, 3450 nM. In the experiment with SN12C, the GI50 was greater than 100000 nM. This compound also displayed an Activity in [2] of 0.

Take `NCCCn1c2c(c3ccccc3c1=O)C(=O)c1cc3c(cc1-2)OCO3`: the Activity result in experiment [1] is “weak activity”.

Regarding `[N-]=[N+]=NCCCn1c2c(c3ccc([N+](=O)[O-])cc3c1=O)C(=O)c1cc3c(cc1-2)OCO3`, the 50% growth inhibitory concentration (GI50) in the experiment on MDA-MB-435, in the experiment on DU-145, in the experiment on SF-268, with UACC-62, in the experiment with OVCAR-3 and in the experiment with HCT-116 was less than 10 nM throughout. Also, the GI50 in the experiment on HOP-62 and in the experiment on SN12C was less than 10 nM throughout. Further, in experiment [3], the Activity entry was “+++”.

`COc1cc2c3c(n(C)c(=O)c2cc1OC)-c1cc2c(cc1C3=O)OCO2`: the GI50 worked out at 96000 nM in the experiment with MDA-MB-435; 37000 nM in the experiment with DU-145; 4200 nM in the experiment on UACC-62; 35000 nM in the experiment on HCT-116; 1300 nM in the experiment on HOP-62; 68000 nM in the experiment on SN12C.

As to `O=C1c2ccccc2-c2c1c1ccccc1c(=O)n2CCCBr`, the GI50 in the experiment with SF-268 was found to be 4610 nM. Besides, the Activity entry in [4] is given as “+/-”.

Turning to `COc1cc2c(cc1OC)[C@H]1C(=O)c3cc4c(cc3[C@H]1N(CCCBr)C2=O)OCO4`, the GI50 with MDA-MB-435 worked out at 150 nM; in the experiment on DU-145, 30 nM; in the experiment with UACC-62 it was 50 nM; with OVCAR-3 it was 400 nM; in the experiment on HCT-116, 70 nM; in the experiment on HOP-62 it was 120 nM. For the same compound, in the experiment on SN12C, the GI50 was 30 nM. For the same compound, the Activity entry in [1] was “weak activity”.

Consider `Nc1ccc2c3c(n(CCCCl)c(=O)c2c1)-c1cc2c(cc1C3=O)OCO2`, for which the GI50 in the experiment on MDA-MB-435, in the experiment with SF-268, with UACC-62, with OVCAR-3 and with SN12C was greater than 100000 nM throughout. Also, the Activity in experiment [5] amounted to 0.

With `O=C1c2cc3c(cc2[C@@H]2[C@H]1c1ccc([N+](=O)[O-])cc1C(=O)N2CCCBr)OCO3`, the GI50 with MDA-MB-435, in the experiment on DU-145, in the experiment on SF-268, in the experiment on UACC-62, with OVCAR-3 and in the experiment on HCT-116 was less than 10 nM throughout. The GI50 in the experiment with HOP-62 and in the experiment with SN12C was less than 10 nM each time. Also, the Activity entry in experiment [1] is “weak activity”.

With `CN1C(=O)c2cc([N+](=O)[O-])ccc2[C@H]2C(=O)c3cc4c(cc3[C@H]21)OCO4`, in experiment [6], the Activity result was “++”. Moreover, the GI50 with MDA-MB-435 was determined as 107 nM; with DU-145, 50 nM; in the experiment with SF-268 it was 24 nM; with UACC-62 it was 26 nM; in the experiment on OVCAR-3, 30 nM; with HCT-116, 14 nM. For the same compound, the GI50 with HOP-62 is 158 nM; in the experiment with SN12C it was 33 nM.

As to `NCCCn1c2c(c3ccc([N+](=O)[O-])cc3c1=O)C(=O)c1cc3c(cc1-2)OCO3`, the GI50 in the experiment on MDA-MB-435 was 25 nM; in the experiment with DU-145, less than 10 nM; in the experiment on SF-268, less than 10 nM; with UACC-62, 17 nM; in the experiment on OVCAR-3 it was 302 nM; with HCT-116, less than 10 nM. In addition, the GI50 in the experiment on HOP-62 and in the experiment on SN12C was less than 10 nM each time. Also, the Activity entry in experiment [3] was “+++”.

Take `O=C1c2ccccc2-c2c1c1ccc([N+](=O)[O-])cc1c(=O)n2CCCCl`: the GI50 with MDA-MB-435 amounted to 31600 nM; in the experiment on DU-145, 40700 nM; with SF-268, 23400 nM; with UACC-62 it was 20400 nM; in the experiment with OVCAR-3 it was 4900 nM; in the experiment with HCT-116 it was 3630 nM. For the same compound, the GI50 was 43700 nM with HOP-62 and 26900 nM in the experiment on SN12C.

Regarding `COc1cc2c3c(n(CCCN)c(=O)c2cc1OC)-c1cc2c(cc1C3=O)OCO2`, the Activity entry in experiment [6] was “++”.

In the case of `O=C1c2cc3c(cc2-c2c1c1ccc([N+](=O)[O-])cc1c(=O)n2CCCCl)OCO3`, in experiment [6], the Activity result is “++”. Besides, the GI50 in the experiment with MDA-MB-435 was 1820 nM; in the experiment on DU-145, 98 nM; in the experiment with SF-268 it was 148 nM; in the experiment with UACC-62 it was 229 nM; with OVCAR-3, 9120 nM; in the experiment on HCT-116 it was 2400 nM. Also, the GI50 in the experiment with HOP-62 was 410 nM; in the experiment on SN12C, 132 nM.

Turning to `NCCCn1c2c(c3ccc([N+](=O)[O-])cc3c1=O)C(=O)c1ccccc1-2`, the GI50 in the experiment on DU-145 worked out at 148 nM; in the experiment with SF-268, 302 nM; in the experiment on UACC-62, 372 nM; in the experiment with HCT-116, 85 nM; in the experiment on HOP-62, 275 nM; in the experiment on SN12C it was 102 nM.

As to `NCCCn1c2c(c3ccccc3c1=O)C(=O)c1ccccc1-2`, the Activity entry in experiment [6] is “++”. In addition, the GI50 in the experiment with MDA-MB-435 was 780 nM; in the experiment on DU-145 it was 220 nM; in the experiment on UACC-62 it was 260 nM; with OVCAR-3 it was 1380 nM; in the experiment with HCT-116, 180 nM; with SN12C, 160 nM.
